Source: US20110039763A1, “TARGETED ANTIMICROBIAL MOIETIES” (C3 JIAN, INC., priority 2009, published 2011)

Tested on: microorganisms
Assay: Morphology, biofilm and growth disrupting peptides (Table 5)
Format: cell-based
Set-up: key: A: Peptide aggregates; B: Less hyphal formation; Clumps; Diffuse clumps and small polyps; F: Diffuse growth; H: Thin; I: Growth inhibition; Microcolony formation; Rippled; Small polyps; Thick; W: Halo formation on top, microlonies on bottom
From the text: In certain embodiments peptides that induce alterations in phenotype or other biological activities can also be used as antimicrobial effector moieties.

Substance: DLLKSLLGQDGAKNDEIIEFIKIIMEK [PF-591]
- Organism, effect (C. jejuni): C. jejuni (C)
- Organism, effect (E. faecalis): E. faecalis (A)
- Organism, effect (S. pneumoniae): S. pneumoniae (R)

Substance: KTPNDKIHKTIIIKHIIL [PF-533]
- Organism, effect (E. coli): E. coli (R)
- Organism, effect (E. faecalis): E. faecalis (C)
- Organism, effect (MRSA): MRSA (H)
- Organism, effect (S. epidermidis): S. epidermidis (H)
- Organism, effect (S. pneumoniae): S. pneumoniae (C)

Substance: PF-019 (NDTNK; Peptide with targeting and/or antimicrobial activity)
- Organism, effect: MRSA (MRSA): MRSA (M)

Substance: PF-032 (RIVVPAHQSNMASTPNLSITP; Peptide with targeting and/or antimicrobial activity)
- Organism, effect: C. jeikeium: C. jeikeium (C)
- Organism, effect: S. epidermidis (S. epidermidis): S. epidermidis (S)

Substance: PF-059 (TITLKAGIERALHEEVPGVIEVEQVF; Peptide with targeting and/or antimicrobial activity)
- Organism, effect: C. jejuni (C. jejuni): C. jejuni (C)

Substance: PF-199 (FPAFSFGAIAGSVSVAR; Peptide with targeting and/or antimicrobial activity)
- Organism, effect: C. jeikeium: C. jeikeium (R)
- Organism, effect: M. luteus: M. luteus (A)
- Organism, effect: S. epidermidis (S. epidermidis): S. epidermidis (C)

Substance: PF-220 (VDPADDGTRHIRPEDGDPIEIDE; Peptide with targeting and/or antimicrobial activity)
- Organism, effect: S. pneumoniae (S. pneumoniae): S. pneumoniae (H)

Substance: PF-250 (SEDIFGRLANEKANGLEELRKIRLKQ; Peptide with targeting and/or antimicrobial activity)
- Organism, effect: M. luteus: M. luteus (T)

Substance: PF-264 (MQSLSNRQSLIASYILMGIFLSFGYPPASLSKFFCRLSHL; Peptide with targeting and/or antimicrobial activity)
- Organism, effect: M. luteus: M. luteus (H)

Substance: PF-274 (SIQEAEKIIKNDPFYIHDVADYDFMWFEPSKSLEEIKEFV; Peptide with targeting and/or antimicrobial activity)
- Organism, effect: M. luteus: M. luteus (M)

Substance: PF-290 (MVHDMTNGTLIIVKH; Peptide with targeting and/or antimicrobial activity)
- Organism, effect: S. epidermidis (S. epidermidis): S. epidermidis (C)

Substance: PF-293 (YDPLK; Peptide with targeting and/or antimicrobial activity)
- Organism, effect: S. epidermidis (S. epidermidis): S. epidermidis (C)

Substance: PF-296 (GAFGMPSIKTNTICGEKGKFISACDAWLSNLK; Peptide with targeting and/or antimicrobial activity)
- Organism, effect: B. subtilis (B. subtilis): B. subtilis (C)
- Organism, effect: S. epidermidis (S. epidermidis): S. epidermidis (C)

Substance: PF-303 (EYPWSWISEPWPWDKSFYK; Peptide with targeting and/or antimicrobial activity)
- Organism, effect: B. subtilis (B. subtilis): B. subtilis (C)

Substance: PF-310 (GVALIGTILVPLLSGLFG; Peptide with targeting and/or antimicrobial activity)
- Organism, effect: S. epidermidis (S. epidermidis): S. epidermidis (C)

Substance: PF-318 (MGRHLWNPSYFVATVSENTEEQIRKYINNQKKQVK; Peptide with targeting and/or antimicrobial activity)
- Organism, effect: B. subtilis (B. subtilis): B. subtilis (C)
- Organism, effect: S. epidermidis (S. epidermidis): S. epidermidis (C)

Substance: PF-335 (AAYPIEDWSDWYEDFFIMLSNI; Peptide with targeting and/or antimicrobial activity)
- Organism, effect: B. subtilis (B. subtilis): B. subtilis (C)
- Organism, effect: S. epidermidis (S. epidermidis): S. epidermidis (C)

Substance: PF-339 (KKIDILINKYMYLSK; Peptide with targeting and/or antimicrobial activity)
- Organism, effect: B. subtilis (B. subtilis): B. subtilis (C)
- Organism, effect: S. epidermidis (S. epidermidis): S. epidermidis (C)

Substance: PF-342 (AFSGVYKTLIVYTRRK; Peptide with targeting and/or antimicrobial activity)
- Organism, effect: B. subtilis (B. subtilis): B. subtilis (C)
- Organism, effect: S. epidermidis (S. epidermidis): S. epidermidis (C)

Substance: PF-415 (MIDVTIGQKSKTGAFNASYSICFSGENFSF; Peptide with targeting and/or antimicrobial activity)
- Organism, effect: S. pneumoniae (S. pneumoniae): S. pneumoniae (D)

Substance: PF-419 (VVTGKVGSLPQIK; Peptide with targeting and/or antimicrobial activity)
- Organism, effect: S. pneumoniae (S. pneumoniae): S. pneumoniae (H)

Substance: PF-449 (MPTTKSKQKGWTNTKKASNTQ; Peptide with targeting and/or antimicrobial activity)
- Organism, effect (S. pneumoniae): S. pneumoniae (H)

Substance: PF-455 (MARNDDDIKKIKGTLGQSPEVYGERKLPYT; Peptide with targeting and/or antimicrobial activity)
- Organism, effect (S. pneumoniae): S. pneumoniae (A)

Substance: PF-468 (EDNKDKKDKKDK; Peptide with targeting and/or antimicrobial activity)
- Organism, effect (S. pneumoniae): S. pneumoniae (H)

Substance: PF-485 (KNSMSRSIALID; Peptide with targeting and/or antimicrobial activity)
- Organism, effect (S. pneumoniae): S. pneumoniae (A)

Substance: PF-532 (KFIYKYKLSFIIYKILIQTLTMELNK; Peptide with targeting and/or antimicrobial activity)
- Organism, effect (E. coli): E. coli (C)
- Organism, effect (E. faecalis): E. faecalis (C)
- Organism, effect (MRSA): MRSA (C)
- Organism, effect (S. pneumoniae): S. pneumoniae (C)

Substance: PF-534 (KYFHLFYHNIIHYSKQHLSLKVDFKN; Peptide with targeting and/or antimicrobial activity)
- Organism, effect (E. coli): E. coli (R)
- Organism, effect (E. faecalis): E. faecalis (C)
- Organism, effect (MRSA): MRSA (C)
- Organism, effect (S. epidermidis): S. epidermidis (C)
- Organism, effect (S. pneumoniae): S. pneumoniae (R)

Substance: PF-535 (NIKTRKRALKIIKQHQRSK; Peptide with targeting and/or antimicrobial activity)
- Organism, effect (P. aeruginosa): P. aeruginosa (H)
- Organism, effect (S. pneumoniae): S. pneumoniae (H)

Substance: PF-536 (MEPIPHIMIIANQIGIIIEKA; Peptide with targeting and/or antimicrobial activity)
- Organism, effect (E. coli): E. coli (R)
- Organism, effect (E. faecalis): E. faecalis (C)
- Organism, effect (MRSA): MRSA (C)
- Organism, effect (P. aeruginosa): P. aeruginosa (H)
- Organism, effect (S. epidermidis): S. epidermidis (C)
- Organism, effect (S. pneumoniae): S. pneumoniae (M)

Substance: PF-541 (RRNLNSPNIKTRKRALKIIKQHQRSK; Peptide with targeting and/or antimicrobial activity)
- Organism, effect (E. coli): E. coli (H)
- Organism, effect (S. pneumoniae): S. pneumoniae (H)

Substance: PF-561 (ESLEADVQAELDTEAAKYPALPASF; Peptide with targeting and/or antimicrobial activity)
- Organism, effect (B. subtilis): B. subtilis (D)
- Organism, effect (MRSA): MRSA (M)

Substance: PF-565 (RAEAEAQRQAEADAKRKAEEAARL; Peptide with targeting and/or antimicrobial activity)
- Organism, effect (B. subtilis): B. subtilis (D)
- Organism, effect (MRSA): MRSA (C)

Substance: PF-571 (SDLLYYPNENREDSPAGVVKEVKE; Peptide with targeting and/or antimicrobial activity)
- Organism, effect (B. subtilis): B. subtilis (D)

Substance: PF-574 (LVKSGKLESPYEHSEHLTLSQEKGLE; Peptide with targeting and/or antimicrobial activity)
- Organism, effect (B. subtilis): B. subtilis (D)

Substance: PF-582 (NLKTIEKECPFCNNKMDIKLKD; Peptide with targeting and/or antimicrobial activity)
- Organism, effect (E. faecalis): E. faecalis (A)

Substance: PF-618 (KLNTLNKKDNPSLNDQDKNAVLNLLALAK; Peptide with targeting and/or antimicrobial activity)
- Organism, effect (E. faecalis): E. faecalis (H)
- Organism, effect (S. pneumoniae): S. pneumoniae (I)
